Measured values from patent US20250034170A1, “SMALL MOLECULE MODULATORS OF GLUCOCEREBROSIDASE ACTIVITY AND USES THEREOF” (Vanqua Bio, Inc., priority 2021, published 2025).

Target: T1, GCase (Homo sapiens, UniProt P04062)
T1 construct: endogenous in cells; host or cells: HeLa cells
T1 sequence (P04062 40-536): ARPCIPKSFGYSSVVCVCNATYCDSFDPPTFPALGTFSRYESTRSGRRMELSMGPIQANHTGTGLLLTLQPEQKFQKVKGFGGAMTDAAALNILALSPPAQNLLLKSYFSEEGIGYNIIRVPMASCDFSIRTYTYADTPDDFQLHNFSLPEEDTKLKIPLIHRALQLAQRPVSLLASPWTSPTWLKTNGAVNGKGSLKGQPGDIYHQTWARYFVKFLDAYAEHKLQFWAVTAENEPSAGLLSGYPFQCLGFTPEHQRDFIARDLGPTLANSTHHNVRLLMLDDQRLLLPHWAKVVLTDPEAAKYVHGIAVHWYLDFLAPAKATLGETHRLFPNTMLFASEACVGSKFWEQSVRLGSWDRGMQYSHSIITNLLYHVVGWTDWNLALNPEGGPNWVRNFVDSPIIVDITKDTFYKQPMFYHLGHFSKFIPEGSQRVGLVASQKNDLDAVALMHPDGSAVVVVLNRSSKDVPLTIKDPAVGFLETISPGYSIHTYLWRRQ
Experiment: activation of GCase in a live cell PFB assay in HELA cells
Format: cell-based
Protocol: Exemplary compounds were evaluated for activation of GCase in a live cell PFB assay in HELA cells (essentially as described in Ysselstein et al., “LRRK2 kinase activity regulates lysosomal glucocerebrosidase in neurons derived from Parkinson's disease patients” Nature Communications (2019) 10:5570). […] EC50 ranges: A: <10 μM; B: >10-50 μM; C: >50-100 μM; D: >100 μM.

[1] = activation of GCase, EC50 ranges

Row | SMILES | EC50 [1] | EC50 (EC50 given as range classes)
1 | O=C(c1cnc(C(F)(F)F)nc1)N1CCC2(CCN(c3cnc4cnn(CC(F)F)c4n3)CC2)C1 [Cmpd 324] | 10 to 50 µM | –
2 | Cc1ncc(C(F)(F)F)nc1N1CCC2(CCN(c3cnc4cnn(CC(F)F)c4n3)CC2)C1=O [Cmpd 928] | 10 to 50 µM | –
3 | O=C1CC2(CCN(c3cnc4cnn(CC(F)F)c4n3)CC2)C(CCF)N1c1ccnc(C(F)(F)F)c1 (stereo not shown) [Cmpd 954] | 10 to 50 µM | –
4 | CCn1c(=O)n(CC(F)F)c2nc(N3CCC4(CN(c5cc(C(F)(F)F)nc(C)n5)C4)C3)ncc21 [Cmpd 1081] | < 10 µM | –
5 | CC(C)N1C(=O)N(c2ccc(C(F)(F)F)nc2)C(=O)C12CCN(c1cnc3cnn(C4COC4)c3n1)CC2 [Cmpd 867] | > 100 µM | –
6 | Cc1nc(N2CC3(CCN(c4cc5c(cn4)c(C)nn5CC(F)F)CC3)C2)cc(C(F)(F)F)n1 [Cmpd 613] | – | < 10 µM
7 | FC(F)(F)c1cc(N2CCC3(C2)CN(c2cnc4cnn(C5COC5)c4n2)C3)ccn1 [Cmpd 344] | < 10 µM | –
8 | FC(F)(F)c1cc(N2CC3(CCN(c4cncc(-c5nncs5)n4)C3)C2)ccn1 [Cmpd 425] | – | 50 to 100 µM
9 | O=C1CC2(CCN(c3cnc4cnn(CC(F)F)c4n3)C2)CCN1c1cc(C(F)(F)F)ccn1 (stereo not shown) [Cmpd 793] | – | 10 to 50 µM
10 | O=C1CC2(CCN(c3cnc4cnn(CC(F)F)c4n3)CC2)CN1Cc1ncc(C(F)(F)F)cc1F [Cmpd 963] | < 10 µM | –
11 | FC(F)Cn1ncc2ncc(N3CCC4(CCC(Oc5cncc(C(F)(F)F)c5)C4)CC3)nc21 (stereo not shown) [Cmpd 691] | 10 to 50 µM | –
12 | O=C1N(c2cnc3cnn(CC(F)F)c3n2)CCC12CN(c1cnc(C(F)(F)F)nc1)C2 [Cmpd 1012] | – | 10 to 50 µM
13 | O=C1CC2(CCN(c3cnc4cnn(CC(F)F)c4n3)CC2)CN1Cc1ccnc(OC(F)F)c1 [Cmpd 919] | < 10 µM | –
14 | O=C(c1ccc(C(F)(F)F)nc1)N1CC2(CCN(c3cnc4cnn(CC(F)F)c4n3)C2)C1 [Cmpd 322] | 10 to 50 µM | –
15 | O=C1CC2(CCN(c3cnc4cnn(CC(F)F)c4n3)CC2)CN1c1ccc(C(F)(F)F)nc1OC(F)F [Cmpd 780] | – | < 10 µM
16 | O=C(c1ccc(C(F)(F)F)cn1)N1CC2(CCN(c3cnc4cnn(CC(F)F)c4n3)C2)C1 [Cmpd 323] | > 100 µM | –
17 | Cc1nc(N2CC3(CCN(c4ncc5cnn(CC(F)F)c5n4)CC3)C2)cc(C(F)(F)F)n1 [Cmpd 564] | < 10 µM | –
18 | FC(F)Cn1ncc2ncc(N3CCC4(CCN(c5ccnc(C(F)(F)F)c5)C4)C3)nc21 (stereo not shown) [Cmpd 472] | > 100 µM | –
19 | Cc1nn(C2COC2)c2nc(N3CCC4(CN(c5ccnc(C(F)(F)F)c5)C4)C3)ncc12 [Cmpd 932] | 10 to 50 µM | –
20 | FC(F)Cn1ncc2ncc(N3CCCC4(C3)CN(c3cccnc3C(F)(F)F)C4)nc21 [Compound 26, 6-[1-(2,2-difluoroethyl)-1H-pyrazolo[3,4-b]pyrazin-6-yl]-2-[2-(trifluoromethyl)pyridin-3-yl]-2,6-diazaspiro[3.5]nonane] | 10 to 50 µM | –
21 | Cc1nc(N2CCC3(CC2)CN(c2ncc4cnn(CC(F)F)c4n2)C3)cc(C(F)(F)F)n1 [Cmpd 586] | – | 10 to 50 µM
22 | FC(F)(F)c1ncc(N2CCC3(CCN(c4ncc5cnn(C6COC6)c5n4)C3)C2)cn1 (stereo not shown) [Cmpd 535] | < 10 µM | –
23 | FC(F)(F)c1cc(N2CCC3(CCN(c4ncc5cnn(C6COC6)c5n4)C3)C2)ccn1 (stereo not shown) [Cmpd 474] | > 100 µM | –
24 | FC(F)Cn1ncc2ncc(N3CCC4(CCN(c5cc(C(F)(F)F)ccn5)CC4)C3)nc21 [Compound 16, 2-[1-(2,2-difluoroethyl)-1H-pyrazolo[3,4-b]pyrazin-6-yl]-8-[4-(trifluoromethyl)pyridin-2-yl]-2,8-diazaspiro[4.5]decane] | 10 to 50 µM | –
25 | Cc1cc(N2CC3(CCN(c4cnc5cnn(CC(F)F)c5n4)C3)C2)nc(C(F)F)n1 [Cmpd 1140] | < 10 µM | –
26 | O=C1N(c2cnc3cnn(C4COC4)c3n2)CCC12CN(c1ccnc(C(F)(F)F)c1)C2 [Cmpd 1003] | – | 10 to 50 µM
27 | FC(F)Cn1ncc2ncc(N3CCC4(CN(Cc5ccc(C(F)(F)F)cn5)C4)C3)nc21 [Cmpd 321] | < 10 µM | –
28 | O=C1CC2(CCN(c3cncc(-c4nncs4)n3)CC2)CN1c1cncc(C(F)(F)F)c1 [Cmpd 237] | 10 to 50 µM | –
